Experiments:
Type in all cases: in vivo
[1] = system: greenhouse red spider mite Tetranychus urticae; test: Tetranychus test (OP-resistant/dip treatment); conditions: after 14 days, infested bean plants dipped
Method: Tetranychus Test (OP-Resistant/Dip Treatment)
(§1) To produce a suitable preparation of active compound, 1 part by weight of active compound is mixed with the stated amount of solvent and the stated amount of emulsifier, and the concentrate is diluted with water to the desired concentration.
Bean plants (Phaseolus vulgaris) which are heavily infested by all stages of the greenhouse red spider mite Tetranychus urticae are dipped into a preparation of active compound of the desired concentration.
After the desired period of time, the kill in % is determined. 100% means that all spider mites have been killed; 0% means that none of the spider mites have been killed.

[2] = system: green rice leaf hoppers (Nephotettix cincticeps); test: Nephotettix test (dipped rice seedlings); conditions: active compound concentration 0.1%, after 6 days
Method: as §1
Rice seedlings (Oryzae sativa) are treated by being dipped into the preparation of active compound of the desired concentration and are populated with green rice leaf hoppers (Nephotettix cincticeps) while the seedlings are still moist.
After the desired period of time, the kill in % is determined. 100% means that all leaf hoppers have been killed; […] means that none of the leaf hoppers have been killed.

[3] = system: larvae of the mustard beetle (Phaedon cochleariae); test: Phaedon larvae test (dipped cabbage leaves); conditions: active compound concentration 0.1%, after 7 days
Method: Phaedon Larvae Test [table] To produce a suitable preparation of active compound, 1 part by weight of active compound is mixed with the stated amount of solvent and the stated amount of emulsifier, and the concentrate is diluted with water to the desired concentration. Cabbage leaves (Brassica oleracea) are treated by being dipped into the preparation of active compound of the desired concentration and are populated with larvae of the mustard beetle (Phaedon cochleariae) while the leaves are still moist.

[4] = system: peach aphids (Myzus persicae); test: Myzus test (dipped cabbage leaves); conditions: active compound concentration 0.1%; after 6 days; infested cabbage leaves dipped
Method: as §1
Cabbage leaves (Brassica oleracea) which are heavily infested by peach aphids (Myzus persicae) are treated by being dipped into the preparation of active compound of the desired concentration.
After the desired period of time, the kill in % is determined. 100% means that all aphids have been killed; 0% means that none of the aphids have been killed.

Myzus persicae = test: Critical concentration test/root-systemic action, Myzus persicae; conditions: 20 ppm active compound in soil; peppers; populated after 7 days, evaluated after a further 6 days
Method: Critical Concentration Test/Root-systemic Action
as §1
(§2) The preparation of active compound is intimately mixed with soil. The concentration of the active compound in the preparation is of practically no importance here, only the amount by weight of active compound per unit volume of soil, which is given in ppm (=mg/l), being decisive. The treated soil is transferred into pots and these are planted with peppers at the cotyledon stage. The active compound can in this way be taken up from the soil by the roots of the plants and be transported into the leaves.
(§3) After a further 6 days, evaluation is carried out by counting or estimating the dead animals. The root-systemic action of the active compound is deduced from the mortality figures. It is 100% if all the test animals have been killed and 0% if just as many test insects are still alive as in the case of the untreated control.

[5] = system: caterpillars of the owlet moth (Spodoptera frugiperda); test: Spodoptera frugiperda test (dipped cabbage leaves); conditions: active compound concentration 0.1%, after 7 days
Method: Spodoptera frugiperda Test
as §1
Cabbage leaves (Brassica oleracea) are treated by being dipped into the preparation of active compound of the desired concentration and are populated with caterpillars of the owlet moth (Spodoptera frugiperda) while the leaves are still moist.
After the desired period of time, the kill in % is determined. 100% means that all caterpillars have been killed; 0% means that none of the caterpillars have been killed.

Aphis fabae = test: Critical concentration test/root-systemic action, Aphis fabae; conditions: soil, read-out: root-systemic effect (mortality)
Method: Critical Concentration Test/Root-Systemic Action
as §1
as §2, with “pregerminated broad beans.” for “peppers at the cotyledon stage.”
as §3

[6] = active compound concentration 0.1%
[7] = active compound concentration 0.02%

**Q.** How did the “effect (kill in %)” value [1, 6] turn out when `Cc1ccc(C2=C(O)C3(CCOC(C)C3)NC2=O)c(C)c1` (single isomer, unassigned) [I-a-4] was run?
**A.** 100%

**Q.** With `Cc1ccc(C2=C(O)C3(CCOC(C)C3)NC2=O)c(Cl)c1` (single isomer, unassigned) [I-a-7] as the molecule, how does the kill in % [2] read?
**A.** 100%

**Q.** And the kill in % [3]?
**A.** 100%

**Q.** And the “effect (kill in %)” value [1, 6]?
**A.** 100%

**Q.** With `Cc1cc(Cl)cc(Cl)c1C1=C(O)C2(CCOC(C)C2)NC1=O` (single isomer, unassigned) [I-a-8] as the molecule, how does the kill in % [3] read?
**A.** 100%

**Q.** How did the kill in % [4] turn out when `Cc1cc(Cl)c(C2=C(O)C3(CCOC(C)C3)NC2=O)c(Cl)c1` (single isomer, unassigned) [I-a-9] was run?
**A.** 100%

**Q.** And the “effect (kill in %)” value [1, 6]?
**A.** 100%

**Q.** Which kill in % [4] does the source give for `Cc1cc(C)c(C2=C(O)C3(CCOC(C)C3)NC2=O)c(C)c1C` (single isomer, unassigned) [I-a-10] here?
**A.** 100%

**Q.** For `Cc1cc(C#N)cc(C)c1C1=C(O)C2(CCOC(C)C2)NC1=O` (single isomer, unassigned) [I-a-12], which kill in % [4] is on record?
**A.** 100%

**Q.** How did the kill in % [4] turn out when `CC1CC2(CCO1)NC(=O)C(c1ccc(Br)cc1Cl)=C2O` (single isomer, unassigned) [I-a-15] was run?
**A.** 100%

**Q.** With `Cc1cc(Cl)cc(C)c1C1=C(O)C2(CCOC(C)C2)NC1=O` (single isomer, unassigned) [I-a-16] as the molecule, how does the kill in % [4] read?
**A.** 100%

**Q.** And the “root-systemic effect (mortality)” value (Myzus persicae)?
**A.** 100%

**Q.** For `Cc1cc(Br)cc(C)c1C1=C(O)C2(CCOC(C)C2)NC1=O` (single isomer, unassigned) [I-a-18], which kill in % [4] is on record?
**A.** 100%

**Q.** With `Cc1cc(Cl)cc(Br)c1C1=C(O)C2(CCOC(C)C2)NC1=O` (single isomer, unassigned) [I-a-19] as the molecule, how does the kill in % [4] read?
**A.** 100%

**Q.** How did the kill in % [4] turn out when `Cc1ccc(C)c(C2=C(O)C3(CCOC(C)C3)NC2=O)c1` (single isomer, unassigned) [I-a-20] was run?
**A.** 100%

**Q.** And the kill in % [5]?
**A.** 100%

**Q.** `CCc1cc(Br)c(C2=C(O)C3(CCOC(C)C3)NC2=O)c(Br)c1` (single isomer, unassigned) [I-a-21] was tested. Which kill in % [4] did it give?
**A.** 100%

**Q.** `CCc1ccc(C2=C(O)C3(CCOC(C)C3)NC2=O)c(Cl)c1` (single isomer, unassigned) [I-a-22] was tested. Which kill in % [2] did it give?
**A.** 100%

**Q.** How did the kill in % [2] turn out when `CC(=O)OC1=C(c2c(C)cc(C)cc2C)C(=O)NC12CCOC(C)C2` (single isomer, unassigned) [I-b-2] was run?
**A.** 100%

**Q.** And the “effect (kill in %)” value [1, 6]?
**A.** 100%

**Q.** How did the “effect (kill in %)” value [1, 6] turn out when `Cc1cc(C)c(C2=C(OC(=O)C(C)C)C3(CCOC(C)C3)NC2=O)c(C)c1` (single isomer, unassigned) [I-b-3] was run?
**A.** 100%

**Q.** What does the source list for `Cc1ccc(C2=C(OC(=O)C(C)C)C3(CCOC(C)C3)NC2=O)c(C)c1` (single isomer, unassigned) [I-b-4]?
**A.** kill in % [2]: 100%; kill in % [3]: 100%; effect (kill in %) [1, 6]: 100%

**Q.** `CC(=O)OC1=C(c2c(C)cc(C)cc2C)C(=O)NC12CCOC(C)C2` (single isomer, unassigned) [I-b-5] was tested. Which kill in % [2] did it give?
**A.** 100%

**Q.** Which kill in % [2] does the source give for `CC(=O)OC1=C(c2ccc(C)cc2C)C(=O)NC12CCOC(C)C2` (single isomer, unassigned) [I-b-6] here?
**A.** 100%

**Q.** How did the kill in % [2] turn out when `Cc1ccc(C2=C(OC(=O)C(C)C)C3(CCOC(C)C3)NC2=O)c(C)c1` (single isomer, unassigned) [I-b-7] was run?
**A.** 100%

**Q.** And the “effect (kill in %)” value [1, 6]?
**A.** 100%

**Q.** `Cc1ccc(C2=C(OC(=O)C(C)C)C3(CCOC(C)C3)NC2=O)c(Cl)c1` (single isomer, unassigned) [I-b-8] was tested. Which kill in % [2] did it give?
**A.** 100%

**Q.** And the kill in % [3]?
**A.** 100%

**Q.** And the “effect (kill in %)” value [1, 6]?
**A.** 100%

**Q.** With `Cc1cc(C)c(C2=C(OC(=O)C(C)C)C3(CCOC(C)C3)NC2=O)c(C)c1C` (single isomer, unassigned) [I-b-11] as the molecule, how does the kill in % [2] read?
**A.** 100%

**Q.** How did the “effect (kill in %)” value [1, 7] turn out when `CC1CC2(CCO1)NC(=O)C(c1ccc(Br)cc1Cl)=C2OC(=O)C(C)C` (single isomer, unassigned) [I-b-15] was run?
**A.** 100%

**Q.** With `CC1CC2(CCO1)NC(=O)C(c1ccc(Br)cc1Cl)=C2OC(=O)CC(C)(C)C` (single isomer, unassigned) [I-b-16] as the molecule, how does the “effect (kill in %)” value [1, 7] read?
**A.** 100%

**Q.** What does the source list for `Cc1cc(Cl)ccc1C1=C(OC(=O)C(C)C)C2(CCOC(C)C2)NC1=O` (single isomer, unassigned) [I-b-17]?
**A.** kill in % [4]: 100%; kill in % [2]: 100%; effect (kill in %) [1, 7]: 100%

**Q.** For `CCc1ccc(C2=C(OC(=O)C(C)C)C3(CCOC(C)C3)NC2=O)c(Cl)c1` (single isomer, unassigned) [I-b-22], which kill in % [2] is on record?
**A.** 100%

**Q.** And the kill in % [3]?
**A.** 100%

**Q.** And the “effect (kill in %)” value [1, 7]?
**A.** 100%

**Q.** With `CCc1ccc(C2=C(OC(=O)c3cccs3)C3(CCOC(C)C3)NC2=O)c(Cl)c1` (single isomer, unassigned) [I-b-23] as the molecule, how does the kill in % [2] read?
**A.** 100%

**Q.** And the kill in % [3]?
**A.** 100%

**Q.** For `Cc1cc(C)c(C2=C(O)C3(CCOC(C)C3)NC2=O)c(C)c1` (centres unmarked) [I-a-1], which mortality at 20 ppm (Aphis fabae) is on record?
**A.** 100%

**Q.** What does the source list for `Cc1cc(C)c(C2=C(OC(=O)C(C)C)C3(CCOC(C)C3)NC2=O)c(C)c1` (centres unmarked) [I-b-1]?
**A.** kill in % [2]: 100%; mortality at 20 ppm (Aphis fabae): 100%

**Q.** How did the “root-systemic effect (mortality)” value (Myzus persicae) turn out when `Cc1cc(Cl)cc(C)c1C1=C(OC(=O)C(C)C)C2(CCOC(C)C2)NC1=O` (centres unmarked) [I-b-25] was run?
**A.** 100%

**Q.** With `CCOC(=O)OC1=C(c2c(C)cc(C)cc2C)C(=O)NC12CCOC(C)C2` (centres unmarked) [I-c-1] as the molecule, how does the kill in % [2] read?
**A.** 100%

**Q.** What about the “effect (kill in %)” value [1, 6] of the same molecule?
**A.** 100%

**Q.** What about the mortality at 20 ppm (Aphis fabae) of the same molecule?
**A.** 100%

**Q.** Which results are given for `CCOC(=O)OC1=C(c2ccc(C)cc2C)C(=O)NC12CCOC(C)C2` (centres unmarked) [I-c-3]?
**A.** kill in % [2]: 100%; kill in % [3]: 100%; kill in % [5]: 100%; effect (kill in %) [1, 6]: 100%

**Q.** Which results are given for `CCOC(=O)OC1=C(c2ccc(C)cc2C)C(=O)NC12CCOC(C)C2` (centres unmarked) [I-c-4]?
**A.** kill in % [2]: 100%; effect (kill in %) [1, 6]: 100%

**Q.** `CCOC(=O)OC1=C(c2c(C)cc(C)c(C)c2C)C(=O)NC12CCOC(C)C2` (centres unmarked) [I-c-5] was tested. Which kill in % [2] did it give?
**A.** 100%

**Q.** How did the kill in % [2] turn out when `CCOC(=O)OC1=C(c2cc(C)c(C)cc2C)C(=O)NC12CCOC(C)C2` (centres unmarked) [I-c-7] was run?
**A.** 100%

**Q.** Which kill in % [4] does the source give for `CCOC(=O)OC1=C(c2ccc(Br)cc2Cl)C(=O)NC12CCOC(C)C2` (centres unmarked) [I-c-8] here?
**A.** 100%

**Q.** `CCOC(=O)OC1=C(c2c(C)cc(Br)cc2C)C(=O)NC12CCOC(C)C2` (centres unmarked) [I-c-11] was tested. Which kill in % [4] did it give?
**A.** 100%

**Q.** And the kill in % [2]?
**A.** 100%

**Q.** For `CCOC(=O)OC1=C(c2ccc(Cl)cc2Cl)C(=O)NC12CCOC(C)C2` (centres unmarked) [I-c-12], which kill in % [4] is on record?
**A.** 100%

**Q.** How did the kill in % [3] turn out when `CCOC(=O)OC1=C(c2ccc(CC)cc2Cl)C(=O)NC12CCOC(C)C2` (centres unmarked) [I-c-13] was run?
**A.** 100%

**Q.** And the kill in % [5]?
**A.** 100%

**Q.** What about the “effect (kill in %)” value [1, 7] of the same molecule?
**A.** 100%

**Q.** For `CCOC(=O)OC1=C(c2cc(C)ccc2C)C(=O)NC12CCOC(C)C2` (centres unmarked) [I-c-15], which kill in % [5] is on record?
**A.** 100%
